The source of these data is US20240166624A1, “PPARG INVERSE AGONISTS AND USES THEREOF” (Flare Therapeutics Inc., priority 2021, published 2024).

Assay [1] has as its target T1, PPARG/RXRA LBD heterodimer (Homo sapiens, UniProt P37231).
T1 construct: His-TEV-Q203-Y477; Uniprot ID P37231-2; made in house; host or cells: E. coli
The assay is described as follows: PPARγ-NCOR1 recruitment assay (TR-FRET, biotinylated NCOR1 ID2 peptide). The note with it: 80 nM Rosiglitazone, 3 hours, read-out: PPARG-NCOR recruitment assay EC50. It counts as biochemical. A digest of the protocol: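 2 nM each of E. coli-expressed PPARG LBD (Q203-Y477) and RXRA LBD (WT or S427F, E228-T462) with biotinylated NCOR1 ID2 peptide, incubated 3 h; TR-FRET read at Ex/Em 615/665. Ratios normalized to DMSO (0%) and T0070907 maximum (100%) for EC50 and maximal recruitment.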
T1 sequence (O75376 2251-2273 partner, one chain of several): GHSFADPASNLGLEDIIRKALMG

Assay [2] addresses T2, PPARG/RXRA LBD heterodimer (Homo sapiens, UniProt P37231).
T2 construct: His-TEV-Q203-Y477; Uniprot ID P37231-2; made in house; host or cells: E. coli
T2 sequence (P37231 203-477 isoform P37231-2): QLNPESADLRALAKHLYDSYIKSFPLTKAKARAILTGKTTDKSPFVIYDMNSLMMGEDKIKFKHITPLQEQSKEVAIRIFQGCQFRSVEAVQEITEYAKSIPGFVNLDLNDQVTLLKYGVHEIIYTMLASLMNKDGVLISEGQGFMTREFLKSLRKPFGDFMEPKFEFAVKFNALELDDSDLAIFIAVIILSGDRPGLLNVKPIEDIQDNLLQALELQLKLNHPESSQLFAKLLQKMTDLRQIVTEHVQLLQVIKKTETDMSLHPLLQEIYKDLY
T2 sequence (P19793 228-462 partner limits assumed): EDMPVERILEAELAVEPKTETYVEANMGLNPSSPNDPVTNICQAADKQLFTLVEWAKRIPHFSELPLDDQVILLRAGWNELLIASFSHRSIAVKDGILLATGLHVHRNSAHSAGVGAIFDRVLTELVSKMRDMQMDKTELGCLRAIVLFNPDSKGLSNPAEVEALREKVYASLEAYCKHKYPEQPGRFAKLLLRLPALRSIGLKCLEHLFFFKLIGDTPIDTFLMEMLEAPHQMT
The assay is described as follows: PPARγ-MED1 blockade assay (TR-FRET, biotinylated MED1 LxxLL peptide). To be noted: WT PPARG LBD/WT RXRA LBD, 80 nM Rosiglitazone, 3 hours. It counts as biochemical. A digest of the protocol: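 TR-FRET measuring biotinylated MED1 LxxLL peptide association with 2 nM each His-PPARG LBD (Q203-Y477) and Flag-RXRA LBD (E228-T462), E. coli expressed. Read after 3 h incubation; ratios normalized to DMSO (0%) and GW9662 minimum (100%) for IC50 and maximal MED1 repulsion.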

Assay [3] deals with ANGPTL4, a PPARG target gene, in HT1197 (RXRA S427F mutation) cells. The assay is described as follows: Bladder cancer pharmacodynamic assay, HT1197 cell assay (qPCR of ANGPTL4). Format: cell-based. The note with it: Homo sapiens, 24 hours, 100 nM compound, relative to DMSO control. A digest of the protocol: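 5637 (PPARG amplified) and HT1197 (RXRA S427F) cells treated 24 h with PPARG inverse agonists. FABP4 and ANGPTL4 expression measured by qPCR, normalised to TBP, and reported relative to DMSO control by ΔΔCt.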

A word on the EC50: it is the midpoint of the concentration-response curve. As a reminder, the inhibition is the share of the control response that was lost under treatment. Read a high inhibition as strong suppression. For `N#Cc1ccc(Cl)c(-c2cc(=O)c3c(F)c(N4CC5(COC5)C4)c(F)cc3[nH]2)c1` [Example 98, 4-chloro-3-(5,7-difluoro-4-oxo-6-(2-oxa-6-azaspiro[3.3]heptan-6-yl)-14-dihydroquinolin-2-yl)benzonitrile], the EC50 lay in the range of 100 to 1000 nM in assay [1] and 1000 to 10000 nM in assay [2]. Further, the inhibition at 0.1 µM in assay [3] is 87%.
In the same order, the values of `CN1CC2(C1)CN(c1c(F)cc3[nH]c(-c4cc(C#N)ccc4Cl)cc(=O)c3c1F)C2` [Example 99, 4-chloro-3-(5,7-difluoro-6-(6-methyl-2,6-diazaspiro[3.3]heptan-2-yl)-4-oxo-1,4-dihydroquinolin-2-yl)benzonitrile] are more than 10000 nM, more than 10000 nM and 59%.
In the same order, the values of `CN(C)C1CN(c2c(F)cc3[nH]c(-c4cc(C#N)ccc4Cl)cc(=O)c3c2F)C1` [Example 100, 4-chloro-3-(6-(3-(dimethylamino)azetidin-1-yl)-5,7-difluoro-4-oxo-1,4-dihydroquinolin-2-yl)benzonitrile] are 1000 to 10000 nM, 1000 to 10000 nM and 87%.
Turning to `CS(=O)(=O)C1CN(c2c(F)cc3[nH]c(-c4cc(C#N)ccc4Cl)cc(=O)c3c2F)C1` [Example 101, 4-chloro-3-(5,7-difluoro-6-(3-(methylsulfonyl)azetidin-1-yl)-4-oxo-1,4-dihydroquinolin-2-yl)benzonitrile], the EC50 in assay [1] and in assay [2] was 1000 to 10000 nM each time. Moreover, the inhibition at 0.1 µM in assay [3] was determined as 52%.
As to `CN(C)C(=O)C1CN(c2c(F)cc3[nH]c(-c4cc(C#N)ccc4Cl)cc(=O)c3c2F)C1` [Example 102, 1-(2-(2-chloro-5-cyanophenyl)-5,7-difluoro-4-oxo-1,4-dihydroquinolin-6-yl)-N,N-dimethylazetidine-3-carboxamide], the EC50 in assay [1] and in assay [2] was 1000 to 10000 nM throughout. The inhibition at 0.1 µM in assay [3] was found to be 81%.
As for `COC1CN(c2c(F)cc3[nH]c(-c4cc(C#N)ccc4Cl)cc(=O)c3c2F)C1` [Example 103, 4-chloro-3-(5,7-difluoro-6-(3-methoxyazetidin-1-yl)-4-oxo-1,4-dihydroquinolin-2-yl)benzonitrile], the EC50 in assay [1] and in assay [2] was 1000 to 10000 nM in each case. The inhibition at 0.1 µM in assay [3] was found to be 82%.
Consider `CO[C@H]1CCN(c2c(F)cc3[nH]c(-c4cc(C#N)ccc4Cl)cc(=O)c3c2F)C1` [Example 104, (S)-4-chloro-3-(5,7-difluoro-6-(3-methoxypyrrolidin-1-yl)-4-oxo-1,4-dihydroquinolin-2-yl)benzonitrile], for which the EC50 in assay [1] and in assay [2] was 100 to 1000 nM in each case. The same molecule gave an inhibition at 0.1 µM in assay [3] of 78%.
Take `CN1CCN(c2cc3c(=O)cc(-c4cc(C#N)ccc4Cl)[nH]c3cc2Cl)CC1` [Example 105, 4-chloro-3-(7-chloro-6-(4-methylpiperazin-1-yl)-4-oxo-1,4-dihydroquinolin-2-yl)benzonitrile]: the EC50 in assay [1] and in assay [2] was 1000 to 10000 nM each time. In addition, the inhibition at 0.1 µM in assay [3] was 60%.
Regarding `CO[C@@H]1CCN(c2c(F)cc3[nH]c(-c4cc(C#N)ccc4Cl)cc(=O)c3c2F)C1` [Example 106, (R)-4-chloro-3-(5,7-difluoro-6-(3-methoxypyrrolidin-1-yl)-4-oxo-1,4-dihydroquinolin-2-yl)benzonitrile], the EC50 in assay [1] and in assay [2] was 100 to 1000 nM each time. The molecule also displayed an inhibition at 0.1 µM in assay [3] of 75%.
Consider `N#Cc1ccc(Cl)c(-c2cc(=O)c3c(F)c(N4CCOCC4)c(F)cc3[nH]2)c1` [Example 107, 4-chloro-3-(5,7-difluoro-6-morpholino-4-oxo-1,4-dihydroquinolin-2-yl)benzonitrile], for which the EC50 in assay [1] and in assay [2] was 100 to 1000 nM each time. The same molecule registered an inhibition at 0.1 µM in assay [3] of 80%.
Turning to `CN(C)[C@H]1CCN(c2c(F)cc3[nH]c(-c4cc(C#N)ccc4Cl)cc(=O)c3c2F)C1` [Example 108, (S)-4-chloro-3-(6-(3-(dimethylamino)pyrrolidin-1-yl)-5,7-difluoro-4-oxo-1,4-dihydroquinolin-2-yl)benzonitrile], the EC50 in assay [1] and in assay [2] was 1000 to 10000 nM each time. Further, the inhibition at 0.1 µM in assay [3] came to 65%.
As for `CN(C)[C@@H]1CCN(c2c(F)cc3[nH]c(-c4cc(C#N)ccc4Cl)cc(=O)c3c2F)C1` [Example 109, (R)-4-chloro-3-(6-(3-(dimethylamino)pyrrolidin-1-yl)-5,7-difluoro-4-oxo-1,4-dihydroquinolin-2-yl)benzonitrile], the EC50 in assay [1] and in assay [2] was 1000 to 10000 nM each time. This molecule came in with an inhibition at 0.1 µM in assay [3] of 65%.
`N#Cc1ccc(Cl)c(-c2cc(=O)c3c(F)c(N4CCS(=O)(=O)CC4)c(F)cc3[nH]2)c1` [Example 110, 4-chloro-3-(6-(1,1-dioxidothiomorpholino)-5,7-difluoro-4-oxo-1,4-dihydroquinolin-2-yl)benzonitrile]: the EC50 in assay [1] and in assay [2] was 1000 to 10000 nM each time. Also, in assay [3], 0.1 µM produced 37% inhibition.
Turning to `CN1CCN(c2c(F)cc3[nH]c(-c4cc(C#N)ccc4Cl)cc(=O)c3c2F)CC1=O` [Example 111, 4-chloro-3-(5,7-difluoro-6-(4-methyl-3-oxopiperazin-1-yl)-4-oxo-1,4-dihydroquinolin-2-yl)benzonitrile], the half-maximal effective concentration (EC50) in assay [1] and in assay [2] was 1000 to 10000 nM each time. The same molecule registered an inhibition at 0.1 µM in assay [3] of 43%.
As to `CN(C)C(=O)C1CCN(c2c(F)cc3[nH]c(-c4cc(C#N)ccc4Cl)cc(=O)c3c2F)CC1` [Example 112, 1-(2-(2-chloro-5-cyanophenyl)-5,7-difluoro-4-oxo-1,4-dihydroquinolin-6-yl)-N,N-dimethylpiperidine-4-carboxamide], the EC50 in assay [1] and in assay [2] was 1000 to 10000 nM each time. In assay [3], this molecule showed an inhibition at 0.1 µM of 66%.
In the case of `CN(C)C(=O)N1CCN(c2c(F)cc3[nH]c(-c4cc(C#N)ccc4Cl)cc(=O)c3c2F)CC1` [Example 113, 4-(2-(2-chloro-5-cyanophenyl)-5,7-difluoro-4-oxo-1,4-dihydroquinolin-6-yl)-N,N-dimethylpiperazine-1-carboxamide], the concentration for a half-maximal effect (EC50) in assay [1] and in assay [2] was 1000 to 10000 nM each time. In assay [3], this molecule registered an inhibition at 0.1 µM of 80%.
Regarding `CN(C)C(=O)[C@@H]1CCCN(c2c(F)cc3[nH]c(-c4cc(C#N)ccc4Cl)cc(=O)c3c2F)C1` [Example 114, (R)-1-(2-(2-chloro-5-cyanophenyl)-5,7-difluoro-4-oxo-1,4-dihydroquinolin-6-yl)-N,N-dimethylpiperidine-3-carboxamide], the EC50 in assay [1] and in assay [2] was 100 to 1000 nM in each case. The same molecule gave an inhibition at 0.1 µM in assay [3] of 60%.
For the molecule `CN(C)C(=O)[C@H]1CCCN(c2c(F)cc3[nH]c(-c4cc(C#N)ccc4Cl)cc(=O)c3c2F)C1` [Example 115, (S)-1-(2-(2-chloro-5-cyanophenyl)-5,7-difluoro-4-oxo-1,4-dihydroquinolin-6-yl)-N,N-dimethylpiperidine-3-carboxamide], the half-maximal effective concentration (EC50) in assay [1] fell in the range of 100 to 1000 nM; in assay [2], 1000 to 10000 nM. Moreover, the inhibition at 0.1 µM in assay [3] amounted to 80%.
